System: γ-secretase
Assay: Cell-Based γ-Secretase Assay with ELISA Readout
Set-up: species or system human
Conditions: for IC50: production of Aβ(1-42) in human WT-APP overexpressing CHO cells, ~24 h, footnote a = single determination, footnote b = geometric mean of ≧5 determinations, read-out: Aβ 42B IC50 (nM) Geometric mean of 2-4 determinations (unless otherwise indicated)
Procedure: The ability of compounds to modulate production of amyloid beta protein Aβ(1-42) was determined using human WT-APP overexpressing CHO cells. Cells were plated at 22,000 cells/100 μL well in 96 well tissue culture treated, clear plates (Falcon) in DMEM/F12 based medium and incubated for 24 h at 37° C. Compounds for testing were diluted in 100% DMSO to achieve an eleven point, half log, dose response for IC50 determinations. Compounds were added in fresh medium to achieve 1% final DMSO. Appropriate vehicle or inhibitor controls were added into control wells individually to obtain minimum or maximum inhibition values, respectively, for the assay signal window before the plates were incubated for ˜24 h at 37° C. This procedure produces conditioned media in each well, which is tested for Aβ(1-42) levels in the ELISA detection step described next. The remaining cell cultures in each well are also tested for cell toxicity as described below.
Coating of ELISA assay plates was initiated by addition of 50 μL/well of an in-house Aβ(1-42) specific antibody (3 μg/mL) in 0.1 M NaHCO3 (pH 9.0) into black 384-well Maxisorp® plates (Nunc); incubation was carried out overnight at 4° C. The capture antibody was then aspirated from the ELISA assay plates and plates were washed either 2×100 μL with a Matrical Squirt plate washer, or 3×90 μL with a Thermo Combi, using Wash Buffer (Dulbecco's PBS, 0.05% Tween 20). 90 μL/well of Blocking Buffer (Dulbecco's PBS, 1.0% BSA (Sigma A7030) was then added to plates. Ambient temperature incubation was allowed to proceed for a minimum of 2 h. Blocking Buffer was then removed and 20 μL/well Assay Buffer (Dulbecco's PBS, 1.0% BSA (Sigma A7030), 0.05% Tween 20) was then added. At this point, 35 μL (40 μL prior to August, 2012) (in duplicate) of experimental conditioned media (described above) was transferred into wells of the blocked ELISA plates containing the capture antibody, followed by overnight incubation at 4° C. Cell toxicity was also measured in the corresponding remaining cells after removal of the conditioned media for the Aβ(1-42) assay by a colorimetric cell proliferation assay (CellTiter 96® AQueous One Solution Cell Proliferation Assay, Promega) according to the manufacturer's instructions.
After overnight incubation of the ELISA assay plates at 4° C., unbound Aβ peptides were removed via either 2×100 μL washes with a Matrical Squirt plate washer, or 3×90 μL washes with a Thermo Combi, using Wash Buffer. Europium (Eu) labeled (custom labeled, PerkinElmer) Aβ(1-16) 6e10 Monoclonal Antibody (Covance #SIG-39320) was added, (50 μL/well Eu-6e10@1:10,000, 20 uM EDTA) in Assay Buffer. Incubation at ambient temperature for a minimum of 2 h was followed by either 2×100 μL washes with a Matrical Squirt plate washer, or 3×90 μL washes with a Thermo Combi, using Wash Buffer, before 30 μL/well of Delfia Enhancement Solution (PerkinElmer) was added. Following 30 to 60 min ambient temperature incubation, the plates were read on an EnVision plate reader (PerkinElmer) using standard DELFIA TRF settings. Data analysis including inhibitory IC50 determination was performed using nonlinear regression fit analysis (in-house software) and the appropriate plate mean values for the maximum and minimum inhibition controls.

| SMILES | IC50 | potency compared with its enantiomer (comparison of the Table 7 potencies of separated enantiomers) |
| --- | --- | --- |
| Cc1cn(-c2ccc3n(c2=O)CCN(CC24CC2(C)Oc2c(F)cc(OC(F)(F)F)cc24)C3=O)cn1 (racemic) [Example C33, 2-{[3-fluoro-1a-methyl-5-(trifluoromethoxy)-1,1a-dihydro-6bH-cyclopropa[b][1]benzofuran-6b-yl]methyl}-7-(4-methyl-1H-imidazol-1-yl)-3,4-dihydro-2H-pyrido[1,2-a]pyrazine-1,6-dione] | 9.3 nM |  |
| Cc1cn(-c2ccc3n(c2=O)CCN(C[C@@]24C[C@]2(C)Oc2ccc(OC(F)(F)F)cc24)C3=O)cn1 (single isomer, unassigned) [Example 2] | 6.5 nM | more potent than its enantiomer 3 |
| Cc1cn(-c2ccc3n(c2=O)CCN(C[C@]24C[C@@]2(C)Oc2ccc(OC(F)(F)F)cc24)C3=O)cn1 (single isomer, unassigned) [Example 3] | 59.2 nM |  |
| Cc1cn(-c2ccc3n(c2=O)CCN(C[C@@]24C[C@]2(C)Oc2c(F)cc(OC(F)(F)F)cc24)C3=O)cn1 (single isomer, unassigned) [Example 4] | 4.9 nM |  |
| Cc1cn(-c2ccc3n(c2=O)CCN(C[C@]24C[C@@]2(C)Oc2c(F)cc(OC(F)(F)F)cc24)C3=O)cn1 (single isomer, unassigned) [Example 5] | 59.2 nM |  |
| Cc1cn(-c2ccc3n(c2=O)CCN(C[C@@]24C[C@]2(C)Oc2cc(F)c(OC(F)(F)F)cc24)C3=O)cn1 (single isomer, unassigned) [Example 6] | 7 nM |  |
| Cc1cn(-c2ccc3n(c2=O)CCN(C[C@]24C[C@@]2(C)Oc2cc(F)c(OC(F)(F)F)cc24)C3=O)cn1 (single isomer, unassigned) [Example 7] | 38 nM |  |
| Cc1ncn(-c2ccc3n(c2=O)CCN(C[C@@]24C[C@]2(C)Oc2cc(F)c(OC(F)(F)F)cc24)C3=O)n1 (single isomer, unassigned) [Example 8] | 36.6 nM |  |
| Cc1ncn(-c2ccc3n(c2=O)CCN(C[C@]24C[C@@]2(C)Oc2cc(F)c(OC(F)(F)F)cc24)C3=O)n1 (single isomer, unassigned) [Example 9] | 519 nM |  |
| Cc1cn(-c2ccc3n(c2=O)CCN(C[C@@]24C[C@]2(C)Oc2cc(Cl)c(C(F)(F)F)cc24)C3=O)cn1 (single isomer, unassigned) [Example 10] | 3 nM |  |
| Cc1cn(-c2ccc3n(c2=O)CCN(C[C@]24C[C@@]2(C)Oc2cc(Cl)c(C(F)(F)F)cc24)C3=O)cn1 (single isomer, unassigned) [Example 11] | 10 nM |  |
| Cc1cn(-c2ccc3n(c2=O)CCN(C[C@@]24C[C@]2(C)Oc2cc(F)c(OC(F)F)cc24)C3=O)cn1 (single isomer, unassigned) [Example 12] | 17.8 nM |  |
| Cc1cn(-c2ccc3n(c2=O)CCN(C[C@]24C[C@@]2(C)Oc2cc(F)c(OC(F)F)cc24)C3=O)cn1 (single isomer, unassigned) [Example 13] | 84.9 nM |  |
| Cc1cn(-c2ccc3n(c2=O)CCN(C[C@@]24C[C@]2(C)Oc2cc(F)c(C(F)(F)F)cc24)C3=O)cn1 (single isomer, unassigned) [Example 17] | 4.4 nM |  |
| Cc1cn(-c2ccc3n(c2=O)CCN(C[C@]24C[C@@]2(C)Oc2cc(F)c(C(F)(F)F)cc24)C3=O)cn1 (single isomer, unassigned) [Example 18] | 20.2 nM |  |
| Cc1cn(-c2ccc3n(c2=O)CCN(C[C@@]24C[C@]2(C)Oc2c(F)cc(C(F)(F)F)cc24)C3=O)cn1 (single isomer, unassigned) [Example 19] | 11.1 nM |  |
| Cc1cn(-c2ccc3n(c2=O)CCN(C[C@]24C[C@@]2(C)Oc2c(F)cc(C(F)(F)F)cc24)C3=O)cn1 (single isomer, unassigned) [Example 20] | 50.1 nM |  |
| Cc1cn(-c2ccc3n(c2=O)CCN(C[C@@]24C[C@]2(C)Oc2c(Cl)cc(C(F)(F)F)cc24)C3=O)cn1 (single isomer, unassigned) [Example 21] | 16 nM |  |
| Cc1cn(-c2ccc3n(c2=O)CCN(C[C@]24C[C@@]2(C)Oc2c(Cl)cc(C(F)(F)F)cc24)C3=O)cn1 (single isomer, unassigned) [Example 22] | 58.3 nM |  |
| Cc1cn(-c2ccc3n(c2=O)CCN(CC24CC2Oc2ccc(C(F)(F)F)cc24)C3=O)cn1 (stereo not drawn) [Example 1, 7-(4-Methyl-1H-imidazol-1-yl)-2-{[5-(trifluoromethyl)-1,1a-dihydro-6bH-cyclopropa[b][1]benzofuran-6b-yl]methyl}-3,4-dihydro-2H-pyrido[1,2-a]pyrazine-1,6-dione] | 48.5 nM |  |
| C[C@]12C[C@@]1(CN1CCn3c(ccc(-n4cnc(CO)c4)c3=O)C1=O)c1cc(OC(F)(F)F)c(F)cc1O2 [Example 14, 2-{[(1aS,6bS)-4-fluoro-1a-methyl-5-(trifluoromethoxy)-1,1a-dihydro-6bH-cyclopropa[b][1]benzofuran-6b-yl]methyl}-7-[4-(hydroxymethyl)-1H-imidazol-1-yl]-3,4-dihydro-2H-pyrido[1,2-a]pyrazine-1,6-dione] | 18.7 nM |  |
| Cc1cn(-c2ccc3n(c2=O)CCN(C[C@@]24C[C@]2(C)Oc2ccc(C(F)(F)F)cc24)C3=O)cn1 [Example 15, 7-(4-methyl-1H-imidazol-1-yl)-2-{[(1aS,6bS)-1a-methyl-5-(trifluoromethyl)-1,1a-dihydro-6bH-cyclopropa[b][1]benzofuran-6b-yl]methyl}-3,4-dihydro-2H-pyrido[1,2-a]pyrazine-1,6-dione] | 8.5 nM |  |
| Cc1cn(-c2ccc3n(c2=O)CCN(C[C@]24C[C@@]2(C)Oc2ccc(C(F)(F)F)cc24)C3=O)cn1 [Example 16, 7-(4-methyl-1H-imidazol-1-yl)-2-{[(1aR,6bR)-1a-methyl-5-(trifluoromethyl)-1,1a-dihydro-6bH-cyclopropa[b][1]benzofuran-6b-yl]methyl}-3,4-dihydro-2H-pyrido[1,2-a]pyrazine-1,6-dione] | 47.3 nM |  |
| Cc1cn(-c2ccc3n(c2=O)CCN(CC24CC2(C)Oc2ccc(OC(F)(F)F)cc24)C3=O)cn1 (stereo not drawn) [Example C22, 7-(4-methyl-1H-imidazol-1-yl)-2-{[1a-methyl-5-(trifluoromethoxy)-1,1a-dihydro-6bH-cyclopropa[b][1]benzofuran-6b-yl]methyl}-3,4-dihydro-2H-pyrido[1,2-a]pyrazine-1,6-dione] | 19.5 nM |  |
| Cc1cn(-c2ccc3n(c2=O)CCN(CC24CC2(C)Oc2cc(F)c(OC(F)(F)F)cc24)C3=O)cn1 (stereo not drawn) [Example C40, 2-{[4-fluoro-1a-methyl-5-(trifluoromethoxy)-1,1a-dihydro-6bH-cyclopropa[b][1]benzofuran-6b-yl]methyl}-7-(4-methyl-1H-imidazol-1-yl)-3,4-dihydro-2H-pyrido[1,2-a]pyrazine-1,6-dione] | 11.2 nM |  |
| Cc1ncn(-c2ccc3n(c2=O)CCN(CC24CC2(C)Oc2cc(F)c(OC(F)(F)F)cc24)C3=O)n1 (stereo not drawn) [Example C44, 2-{[4-fluoro-1a-methyl-5-(trifluoromethoxy)-1,1a-dihydro-6bH-cyclopropa[b][1]benzofuran-6b-yl]methyl}-7-(3-methyl-1H-1,2,4-triazol-1-yl)-3,4-dihydro-2H-pyrido[1,2-a]pyrazine-1,6-dione] | 68.9 nM |  |
